# Values of other authors as cited in publication PMC7643960 (PLoS ONE, 2020).
# System: healthy horses
# Details: 1% NVX-207 twice a day for seven consecutive days, eight healthy horses; cited from earlier work
structure (smiles),measurement,value
"C=C(C)[C@@H]1CC[C@]2(C(=O)O)CC[C@]3(C)[C@H](CC[C@@H]4[C@@]5(C)CC[C@H](O)C(C)(C)[C@@H]5CC[C@]43C)[C@@H]12 [betulinic acid, reference compound]",tolerability after topical application,no compound-related local adverse effects
